# Data: patent publication US20240130367A1, “PLANT GROWTH PROMOTERS” (University of Durham, priority 2020, published 2024)
# Counter-ions that a name gives are not always drawn.
# Columns and labels:
# [1] = tested on: RGA-GFP; assay: DELLA degradation: confocal imaging of RGA-GFP fluorescence in roots; assay type: in vivo, Arabidopsis thaliana; conditions: 100 μM; for GFP fluorescence / stability of DELLA protein in roots: A1 imaged after 2 and 24 hours, PAC applied 48 hours before
# Excerpt: (§1) Arabidopsis thaliana wild-type seeds were from laboratory stocks of Columbia (Col-0) and Landsberg erecta (Ler-0) accessions. Arabidopsis thaliana is a dicot. The mutants of gid1 (J. Griffiths, et al., Plant Cell, 2006, 18, 3399-3414) were obtained from Dr. Steve Thomas (Rothamsted Research, UK) and were in a Col-0 background, whilst the della quintuple mutant (S. H. Feng et al. Nature, 2008, 451: 475-479) and ga1-5 (I. Fridborg et al. Plant Cell, 1999, 11: 1019-1031) were in a Ler-0 background and was obtained from the Nottingham Arabidopsis Stock Centre (NASC). The A. thaliana line expressing RGA-GFP (A. L. Silverstone et al. The Plant Cell, 2001, 13: 1555-1565), Col-0 background was obtained from Prof. Keith Lindsey (Durham University, UK). Seeds were plated out 1×MS medium pH 5.8 (T. Murashige and F. Skoog (1962) Physiologia Plantarum 15: 473-497) in petri dishes with a concentration of either 0.8% or 1.2% (w/v) phytoagar for root and hypocotyl measurements, respectively. After sowing seeds were stratified on plates at 4° C. for a minimum of 48 h to achieve synchronous germination. Seedlings were grown for either 7 or 2 days for root and hypocotyl measurements, respectively, prior to treatment with chemicals. For hypocotyl measurements, seeds were sown on nylon mesh (acid resistant monofilament nylon filter mesh fabric; GZ, model number H20M). Seedling were grown in a Percival (CU-36L5D, CLF plant climatics, Emersacker, Germany) with a photoperiod of 16/8 h with a light intensity of either 150 μmol m^2 s^−1 or 50 μmol m^2 s^−1 for root and hypocotyl measurements, respectively, and a temperature of 20±1° C.
# Confocal microscopy was performed using a Leica SP5 CLSM FLIM FCCS (Leica Microsystems, Wetzlar, Germany). GFP:RGA seeds were germinated and grown on 1.2% MS vertically for 7 days, and then incubated in chemical solution (at the final concentration of 100 μM) for 2 and 24 hours before being analyzed. […] The excitation wavelength of the argon laser was 488 nm and the emission was detected using a bypass filter of 495-550 nm. […]
# [2] = tested on: Arabidopsis thaliana wild-type; assay: Root growth assay, seedlings on agar plates containing chemical; assay type: in vivo; conditions: 100 μM; for Root growth activity relative to A1: 7-day old seedlings, 5 days
# Experimental: Arabidopsis thaliana wild-type seeds were from laboratory stocks of Columbia (Col-0) and Landsberg erecta (Ler-0) accessions. […] Seeds were plated out 1×MS medium pH 5.8 (T. Murashige and F. Skoog (1962) Physiologia Plantarum 15: 473-497) in petri dishes with a concentration of either 0.8% or 1.2% (w/v) phytoagar for root and hypocotyl measurements, respectively. After sowing seeds were stratified on plates at 4° C. for a minimum of 48 h to achieve synchronous germination. Seedlings were grown for either 7 or 2 days for root and hypocotyl measurements, respectively, prior to treatment with chemicals. […] Seedling were grown in a Percival (CU-36L5D, CLF plant climatics, Emersacker, Germany) with a photoperiod of 16/8 h with a light intensity of either 150 μmol m^2 s^−1 or 50 μmol m^2 s^−1 for root and hypocotyl measurements, respectively, and a temperature of 20±1° C.
# The effect of the A1 analogues on root and hypocotyl growth was investigated. In order to allow a direct comparison with eW5, the concentration used in these assays was 100 μM. The root growth assay was performed by treating the 7-day old seedlings on chemical plates for 5 days.
# [3] = tested on: Arabidopsis thaliana wild-type; assay: Hypocotyl growth assay under reduced light; assay type: in vivo; conditions: 100 μM; for Hypocotyl growth promotion relative to A1 / Effect on hypocotyl growth in wild type: reduced light; for New Length / Relative growth (cm) / New length (cm): hypocotyl; for New Length / New length (cm) / Effect on hypocotyl growth in wild type: three days; for New Length: in cm; for New length (cm): trials 1, 2, 3 and SAM each with own DMSO control
# Excerpt: as §1
# After growing as described above seedlings for root assays were transferred to 1.2% (w/v) agar plates containing each chemical at a final concentration of 100 μM (the addition of the chemicals was performed when media had cooled to 50° C. after autoclaving), with an equivalent concentration of DMSO as control. At this stage the positions of the root tips were marked on the petri dish. The plants were subsequently grown vertically and after a further 5 days images of the plates were scanned and the root growth that occurred during the 5 days on chemicals was measured using ImageJ software. 18 seedlings were measured for each treatment. For hypocotyl measurements the assay performed was adapted from de Lucas et al. (2008, supra). After growing seedlings as described above, the nylon mesh was transferred across to the plates containing chemical. The plants were then placed in vertical orientation for three days under reduced light intensity (by covering plates with 2 layers of 80 g·m^2 white paper) before the plates were scanned. The measurement of hypocotyl was done using ImageJ software. At least 15 seedlings were measured for each plate.
# To determine the mechanism of A1 action via the GA/DELLA signaling pathway, the response of A1 in a series of GA synthesis/signalling mutants was investigated. For these assays the focus was on hypocotyl growth, because it is well established that DELLA can inhibit the binding of PIFs to their target promoter leading to a reduction in GA-regulated hypocotyl growth (A. Castillon, H. Shen and E. Huq (2007) Trends in Plant Science, 12: 514-521.; de Lucas et al. 2008, supra; S. H. Feng et al. 2008, supra. To establish the use of A1 in this assay, hypocotyl growth was first tested by growing the seedlings on agar plates containing A1, with GA and PAC used as positive and negative controls, respectively, for three days in reduced light conditions to achieve a balance between maximum and minimum hypocotyl growth. […] Having established the hypocotyl assay, DELLA-dependence of the A1 effect was then confirmed genetically. To test this, a mutant line that lacks all DELLA (GAI, RGA, RGL1, RGL2 and RGL3) function was used.
# The effect of additional compounds on hypocotyl growth was investigated using the same methods as described above (100 μM of each compound was used). […]
# [4] = tested on: plant; conditions: known calmodulin inhibitors; cited from earlier work
# [5] = tested on: Arabidopsis thaliana; assay: Fresh and dry weight measurements of treated seedlings; assay type: in vivo; conditions: 5 days chemical treatment
# Experimental: Leaves and roots fresh weights of 12 days old seedlings, that were subjected to 5 days chemical treatment as described above, were measured. Dry weights were recorded after placing the plant material in oven at 65° C. for 3 days. The measurements were performed on 15 seedlings for each treatment.
# Having discovered the root growth-promoting properties of A1, we wished to establish if the effects were limited to the roots, or whether A1 could also promote growth of shoot tissue. We were also interested to see if the effect was on fresh weight, dry weight or both. To investigate this, plants were treated with A1, divided into shoot and root material and the fresh and dry weight recorded.
# [6] = tested on: della quintuple mutant; assay: Hypocotyl growth assay in della quintuple mutant; assay type: in vivo, Arabidopsis thaliana
# Excerpt: (§2) Arabidopsis thaliana wild-type seeds were from laboratory stocks of Columbia (Col-0) and Landsberg erecta (Ler-0) accessions. Arabidopsis thaliana is a dicot. The mutants of gid1 (J. Griffiths, et al., Plant Cell, 2006, 18, 3399-3414) were obtained from Dr. Steve Thomas (Rothamsted Research, UK) and were in a Col-0 background, whilst the della quintuple mutant (S. H. Feng et al. Nature, 2008, 451: 475-479) and ga1-5 (I. Fridborg et al. Plant Cell, 1999, 11: 1019-1031) were in a Ler-0 background and was obtained from the Nottingham Arabidopsis Stock Centre (NASC). The A. thaliana line expressing RGA-GFP (A. L. Silverstone et al. The Plant Cell, 2001, 13: 1555-1565), Col-0 background was obtained from Prof. Keith Lindsey (Durham University, UK). […]
# (§3) After growing as described above seedlings for root assays were transferred to 1.2% (w/v) agar plates containing each chemical at a final concentration of 100 μM (the addition of the chemicals was performed when media had cooled to 50° C. after autoclaving), with an equivalent concentration of DMSO as control. […] The plants were subsequently grown vertically and after a further 5 days images of the plates were scanned and the root growth that occurred during the 5 days on chemicals was measured using ImageJ software. 18 seedlings were measured for each treatment. […] At least 15 seedlings were measured for each plate. […]
# [7] = tested on: ga1-5 mutant; assay: Hypocotyl growth assay in GA biosynthesis mutant ga1-5; assay type: in vivo, Arabidopsis thaliana; conditions: 100 μM, three days
# Excerpt: as §2, §3
# [8] = tested on: gid1 double mutants; assay: Hypocotyl growth assay in GA receptor gid1 double mutants; assay type: in vivo, Arabidopsis thaliana
# Excerpt: as §2, §3
# [9] = tested on: maize; assay: Growth of a monocot on application of A1; assay type: in vivo
# [10] = relative to the DMSO control of the same trial
smiles,measurement,setting,value
"CC(C)(C)[C@@H](O)[C@@H](Cc1ccc(Cl)cc1)n1cncn1 (racemic) [PAC, paclobutrazol, reference compound]",GFP fluorescence / stability of DELLA protein in roots,[1],stabilized the DELLA protein
"Cl.NCCNS(=O)(=O)Cc1ccccc1 [Compound E3, Alpha-toluenesulfonylethylene Diamine Hydrochloric Acid Salt]",Root growth activity relative to A1,[2],higher activity than A1
same,Hypocotyl growth promotion relative to A1,[3],less hypocotyl growth promotion relative to A1
"Cc1ccc(CS(=O)(=O)NCCN)cc1.Cl [Compound E4, Alpha-p-xylenesulfonylethylene Diamine Hydrochloric Acid Salt]",Root growth activity relative to A1,[2],higher activity than A1
same,Hypocotyl growth promotion relative to A1,[3],less hypocotyl growth promotion relative to A1
"CN(CCN)S(=O)(=O)c1cccc2ccccc12.Cl [Compound E5, N-methyl-N-naphthylsulfonyl-1,2-ethanediamine Hydrochloric Acid Salt]",Root growth activity relative to A1,[2],biggest effect
same,Hypocotyl growth promotion relative to A1,[3],biggest effect
"NCCCCCCNS(=O)(=O)c1cccc2ccccc12 [Compound W5, N-(6-Aminohexyl)-1-naphthalenesulfonamide]",Effect on plant growth,[4],inhibit plant growth
"NCCCCCCNS(=O)(=O)c1cccc2c(Cl)cccc12 [Compound W7, N-(6-Aminohexyl)-5-chloro-1-naphthalenesulfonamide]",Effect on plant growth,[4],inhibit plant growth
"CN(CCN)S(=O)(=O)c1cccc2ccccc12 [JAR491, N-(2′-aminoethyl)-N-methylnaphthalene-1-sulfonamide]",New Length,[3],0.8285
same,Relative growth (cm),[3]; relative to DMSO control,0.2085
"CNCCNS(=O)(=O)c1cccc2ccccc12 [JAR493, N-[2′-(methylamino)ethyl]naphthalene-1-sulfonamide Hydrochloride]",New Length,[3],0.897
same,Relative growth (cm),[3]; relative to DMSO control,0.3085
"C=CCN(CCN)S(=O)(=O)c1cccc2ccccc12.Cl [SAM1, N-(2′-aminolethyl)-N-(prop-2″-en-1′-yl)naphthalene-1-sulfonamide Hydrogen Chloride]",New length (cm),[3],0.193 cm
same,Relative growth (cm),[3]; [10],−0.0203
"Cl.NCCN(Cc1ccccc1)S(=O)(=O)c1cccc2ccccc12 [SAM2, N-(2′-aminoethyl)-N-benzylnaphthalene-1-sulfonamide Hydrogen Chloride]",New length (cm),[3],0.191 cm
same,Relative growth (cm),[3]; [10],−0.03046
"CCOC(=O)CN(CCN)S(=O)(=O)c1cccc2ccccc12.Cl [SAM3, ethyl 2″-[N-(2′-aminoethyl)naphthalene-1-sulfonamido]acetate Hydrogen Chloride]",New length (cm),[3],0.272 cm
same,Relative growth (cm),[3]; [10],0.3807
"CCOC(=O)C(C)N(CCN)S(=O)(=O)c1cccc2ccccc12.Cl (stereo not shown) [SAM4, ethyl 2-[N-(2-azaniumylethyl)naphthalene-1-sulfonamido]propanoate Chloride]",New length (cm),[3],0.228 cm
same,Relative growth (cm),[3]; [10],0.1574
"Cl.NCCNS(=O)(=O)c1cccc2ccccc12 [eW5, 2′-Amino-1′-(1-naphthylsulfonylamino)Ethane Hydrochloric Acid Salt]",Effect on root growth compared to DMSO control,[2]; 5 days on chemical,promoted root growth
same,Effect on hypocotyl growth in wild type,[3],increased the hypocotyl length
same,Effect on hypocotyl growth in wild type,[3]; listed as A1,stimulated hypocotyl growth in a manner very similar to GA
same,New Length,[3],0.9253
same,Relative growth (cm),[3]; relative to DMSO control,0.3497
same,Fresh weight of roots and shoots,[5]; 12 days old seedlings,increased
same,Dry:fresh weight ratio in roots and shoots,[5]; dried at 65° C. for 3 days,increased
same,Time after which the DELLA degradation response could be observed,[1],2 h
same,GFP fluorescence / stability of DELLA protein in roots,[1],reduced GFP fluorescence
same,Effect on hypocotyl growth in mutant lacking all DELLA function,[6],no promotion of hypocotyl growth was observed
same,Recovery of hypocotyl elongation in ga1-5,[7],could not recover hypocotyl elongation
same,Effect on hypocotyl length in gid1 double mutants compared with wild type,[8],the effect was reduced in the mutants
same,"Root, stem and leaf growth in maize",[9],"Improved root, stem (hypocotyl in particular) and leaf growth"
